Results from PubChem BioAssay AID330 (DTP/NCI, 2004).
“And” between values parts separate entries of the source, which are not always exact repeats. Equal entries are not always repeated. Inconclusive results and toxic doses are left out.

System: P388 leukemia ip, CD2F1 mice, survival T/C
Assay: NCI In Vivo Anticancer Drug Screen. Data for tumor model P388 Leukemia (intraperitoneal) in CD2F1 (CDF1) mice
Settings: endpoint: median survival time, higher = longer survival
Procedure, shortened: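 Mice carrying the transplanted tumor received test compound or vehicle. Survival was recorded in each group, and the value is the treated-group measurement divided by that of the vehicle-treated control group.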

[1] = dose: 100.0 mg/kg/injection, schedule: Q04DX002 (ip), vehicle: saline with Tween-80
[2] = dose: 200.0 mg/kg/injection, schedule: Q04DX002 (ip), vehicle: saline with Tween-80
[3] = dose: 400.0 mg/kg/injection, schedule: Q04DX002 (ip), vehicle: saline with Tween-80
[4] = dose: 50.0 mg/kg/injection, schedule: Q01DX005 (ip), vehicle: saline with Tween-80
[5] = dose: 100.0 mg/kg/injection, schedule: Q01DX005 (ip), vehicle: saline with Tween-80
[6] = dose: 50.0 mg/kg/injection, schedule: Q01DX009 (ip), vehicle: saline
[7] = dose: 100.0 mg/kg/injection, schedule: Q01DX009 (ip), vehicle: saline
[8] = dose: 200.0 mg/kg/injection, schedule: Q01DX009 (ip), vehicle: saline
[9] = dose: 400.0 mg/kg/injection, schedule: Q01DX009 (ip), vehicle: saline
[10] = dose: 50.0 mg/kg/injection, schedule: Q01DX009 (ip), vehicle: saline with Tween-80
[11] = dose: 200.0 mg/kg/injection, schedule: Q01DX009 (ip), vehicle: saline with Tween-80
[12] = dose: 60.0 mg/kg/injection, schedule: Q01DX005 (ip), vehicle: saline with Tween-80
[13] = dose: 120.0 mg/kg/injection, schedule: Q01DX005 (ip), vehicle: saline with Tween-80
[14] = dose: 240.0 mg/kg/injection, schedule: Q01DX005 (ip), vehicle: saline with Tween-80
[15] = dose: 25.0 mg/kg/injection, schedule: Q01DX009 (ip), vehicle: saline
[16] = dose: 100.0 mg/kg/injection, schedule: Q01DX009 (ip), vehicle: saline with Tween-80
[17] = dose: 50.0 mg/kg/injection, schedule: Q01DX009 (ip), vehicle: Klucel (hydroxypropylcellulose) (HPC)
[18] = dose: 100.0 mg/kg/injection, schedule: Q01DX009 (ip), vehicle: Klucel (hydroxypropylcellulose) (HPC)
[19] = dose: 200.0 mg/kg/injection, schedule: Q01DX009 (ip), vehicle: Klucel (hydroxypropylcellulose) (HPC)

CSc1nc(NN)c2cnn(C3CCCCO3)c2n1 (stereo not drawn)
T/C [1]: 100 % of control | T/C [2]: 96 % of control | T/C [3]: 94 % of control

C=CC1CCCCC1C=C (stereo not drawn)
T/C (dose: 12.5 mg/kg/injection, schedule: Q04DX003 (ip), vehicle: saline): 100 % of control | T/C (dose: 25.0 mg/kg/injection, schedule: Q04DX003 (ip), vehicle: saline): 113 % of control | T/C (dose: 50.0 mg/kg/injection, schedule: Q04DX003 (ip), vehicle: saline): 100 % of control

O=c1c(Cl)c(Cl)oc(Cl)c1Cl
T/C [4]: 100 % of control | T/C [5]: 98 % of control

COc1ccc2ccc3ccc(OC)c(OC(C)=O)c3c2c1
T/C (dose: 60.0 mg/kg/injection, schedule: Q01DX005 (ip), vehicle: Klucel (hydroxypropylcellulose) (HPC)): 100 % of control | T/C (dose: 120.0 mg/kg/injection, schedule: Q01DX005 (ip), vehicle: Klucel (hydroxypropylcellulose) (HPC)): 98 % of control | T/C (dose: 240.0 mg/kg/injection, schedule: Q01DX005 (ip), vehicle: Klucel (hydroxypropylcellulose) (HPC)): 91 % of control

N#Cc1ccc(CC(O)(c2ccccc2)c2ccccc2)cc1
T/C [6]: 99 % of control | T/C [7]: 101 % of control | T/C [8]: 95 % of control | T/C [9]: 87 % of control

CC(Nc1ccc(Br)cc1[N+](=O)[O-])C(=O)O (stereo not drawn)
T/C [10]: 110 % of control | T/C [11]: 100 % of control

C[n+]1c(-c2cccc(OCCCCCCCCOc3cccc(-c4c5cc(N)ccc5c5ccc(N)cc5[n+]4C)c3)c2)c2cc(N)ccc2c2ccc(N)cc21
T/C (dose: 0.09 mg/kg/injection, schedule: Q01DX009 (ip), vehicle: water): 163 % of control | T/C (dose: 0.19 mg/kg/injection, schedule: Q01DX009 (ip), vehicle: water): 154 % of control | T/C (dose: 0.38 mg/kg/injection, schedule: Q01DX009 (ip), vehicle: water): 151 % of control | T/C (dose: 0.39 mg/kg/injection, schedule: Q01DX009 (ip), vehicle: water): 170 % of control | T/C (dose: 0.75 mg/kg/injection, schedule: Q01DX009 (ip), vehicle: water): 150 % of control | T/C (dose: 0.78 mg/kg/injection, schedule: Q01DX009 (ip), vehicle: water): 179 % of control | T/C (dose: 1.5 mg/kg/injection, schedule: Q01DX009 (ip), vehicle: water): 91 % of control | T/C (dose: 1.56 mg/kg/injection, schedule: Q01DX009 (ip), vehicle: water): 213 % of control

COc1ccc(SS(=O)c2ccc(OC)cc2)cc1 (stereo not drawn)
T/C [1]: 100 % of control | T/C [2]: 102 % of control | T/C [3]: 102 % of control

CCOC(=O)Nn1c(C)c(C(N)=O)c(C(=O)OC)c1C
T/C [12]: 100 % of control | T/C [13]: 96 % of control | T/C [14]: 103 % of control

Cc1csnn1
T/C (dose: 15.0 mg/kg/injection, schedule: Q01DX005 (ip), vehicle: saline with Tween-80): 105 % of control | T/C (dose: 30.0 mg/kg/injection, schedule: Q01DX005 (ip), vehicle: saline with Tween-80): 100 % of control | T/C [12]: 102 % of control

NC(=O)CCCCO
T/C (dose: 100.0 mg/kg/injection, schedule: Q04DX003 (ip), vehicle: saline): 102 % of control | T/C (dose: 200.0 mg/kg/injection, schedule: Q04DX003 (ip), vehicle: saline): 102 % of control | T/C (dose: 400.0 mg/kg/injection, schedule: Q04DX003 (ip), vehicle: saline): 109 % of control

C[CH2][Sn](=[O])[CH2]C
T/C [15]: 154 % of control

CC(/C=N\Nc1ccc(C(=O)O)cc1)=N/NC(=O)CC#N
T/C [6]: 88 % of control | T/C [7]: 86 % of control | T/C [8]: 88 % of control

O=[N+]([O-])c1ccc(O)c(O)c1
T/C (dose: 12.5 mg/kg/injection, schedule: Q01DX009 (ip), vehicle: saline): 100 % of control | T/C [15]: 108 % of control | T/C [6]: 98 % of control

O=C(O)Cn1cc(I)c(=O)c(I)c1
T/C [10]: 102 % of control | T/C [16]: 112 % of control | T/C [7]: 101 % of control | T/C [11]: 110 % of control | T/C [8]: 105 % of control | T/C (dose: 400.0 mg/kg/injection, schedule: Q01DX009 (ip), vehicle: saline with Tween-80): 112 % of control | T/C [9]: 102 % of control | T/C (dose: 600.0 mg/kg/injection, schedule: Q01DX009 (ip), vehicle: saline): 101 % of control

c1ccc2c(c1)ccc1c2nnc2nnnn21
T/C [17]: 104 % of control | T/C [18]: 105 % of control | T/C [19]: 95 % of control

N#Cc1c(-c2ccc(Cl)cc2)c(-c2ccc(Cl)cc2)nn(CCOC(=O)CCC(=O)OCCn2nc(-c3ccc(Cl)cc3)c(-c3ccc(Cl)cc3)c(C#N)c2=O)c1=O
T/C (dose: 25.0 mg/kg/injection, schedule: Q04DX002 (ip), vehicle: distilled water + Tween-80): 95 % of control | T/C (dose: 50.0 mg/kg/injection, schedule: Q04DX002 (ip), vehicle: distilled water + Tween-80): 89 % of control | T/C (dose: 100.0 mg/kg/injection, schedule: Q04DX002 (ip), vehicle: distilled water + Tween-80): 91 % of control

COc1ccc2[se]c(C(=O)O)cc2c1
T/C [6]: 91 % of control | T/C [7]: 91 % of control

COc1cc(CC2NCCc3cc(O)c(O)cc32)cc(OC)c1OC (stereo not drawn)
T/C (dose: 25.0 mg/kg/injection, schedule: Q01DX009 (ip), vehicle: Klucel (hydroxypropylcellulose) (HPC)): 103 % of control | T/C [17]: 100 % of control and 113 % of control | T/C [18]: 106 % of control and 111 % of control | T/C [19]: 108 % of control

COc1ccc2c(c1)OCCN(C)C2c1ccccc1 (stereo not drawn)
T/C [4]: 97 % of control | T/C [5]: 99 % of control | T/C (dose: 200.0 mg/kg/injection, schedule: Q01DX005 (ip), vehicle: saline with Tween-80): 99 % of control

CCOC(=O)C(Cc1ccc(N(CCCl)CCCl)cc1)NC(=O)C(Cc1ccccc1)NC=O (stereo not drawn)
T/C (dose: 25.0 mg/kg/injection, schedule: Q01DX009 (ip), vehicle: saline with Tween-80): 172 % of control | T/C [10]: 86 % of control | T/C (dose: 100.0 mg/kg/injection, schedule: Q04DX003 (ip), vehicle: saline with Tween-80): 166 % of control | T/C (dose: 200.0 mg/kg/injection, schedule: Q04DX003 (ip), vehicle: saline with Tween-80): 220 % of control

Brc1cc(Br)cc(CN2CCOCC2)c1
T/C [12]: 98 % of control | T/C [13]: 100 % of control | T/C [14]: 106 % of control

O=c1[nH]c2ccccc2[nH]1
T/C [17]: 114 % of control and 98 % of control | T/C (dose: 50.0 mg/kg/injection, schedule: Q01DX009 (ip), vehicle: suspension in saline): 99 % of control and 90 % of control | T/C [18]: 107 % of control and 98 % of control | T/C (dose: 100.0 mg/kg/injection, schedule: Q01DX009 (ip), vehicle: suspension in saline): 100 % of control | T/C [19]: 117 % of control | T/C (dose: 200.0 mg/kg/injection, schedule: Q01DX009 (ip), vehicle: suspension in saline): 101 % of control and 96 % of control | T/C (dose: 400.0 mg/kg/injection, schedule: Q01DX009 (ip), vehicle: suspension in saline): 101 % of control and 88 % of control

CC1=C(CO)C(=O)OC(C(C)C2CCC3C4CC5OC56C(O)C(N5CC5)=CC(=O)C6(C)C4CCC23C)C1 (stereo not drawn)
T/C (dose: 5.0 mg/kg/injection, schedule: Q01DX005 (ip), vehicle: Klucel (hydroxypropylcellulose) (HPC)): 110 % of control | T/C (dose: 10.0 mg/kg/injection, schedule: Q01DX005 (ip), vehicle: Klucel (hydroxypropylcellulose) (HPC)): 120 % of control and 91 % of control and 97 % of control | T/C (dose: 20.0 mg/kg/injection, schedule: Q01DX005 (ip), vehicle: Klucel (hydroxypropylcellulose) (HPC)): 103 % of control and 104 % of control and 123 % of control | T/C (dose: 40.0 mg/kg/injection, schedule: Q01DX005 (ip), vehicle: Klucel (hydroxypropylcellulose) (HPC)): 103 % of control and 106 % of control and 123 % of control | T/C (dose: 80.0 mg/kg/injection, schedule: Q01DX005 (ip), vehicle: Klucel (hydroxypropylcellulose) (HPC)): 108 % of control and 109 % of control | T/C (dose: 160.0 mg/kg/injection, schedule: Q01DX005 (ip), vehicle: Klucel (hydroxypropylcellulose) (HPC)): 105 % of control

CC(=O)Nc1ccc(OCCOC(=O)Nc2c(Cl)cccc2Cl)cc1
T/C [17]: 92 % of control | T/C [19]: 92 % of control

c1cc(C2CO2)ccc1Oc1ccc(C2CO2)cc1 (stereo not drawn)
T/C [17]: 103 % of control | T/C [18]: 88 % of control | T/C [19]: 93 % of control

CC(NNC(=S)N1CC2CCC(CC2)C1)c1nccc2ccccc12 (stereo not drawn)
T/C (dose: 12.5 mg/kg/injection, schedule: Q01DX005 (ip), vehicle: saline with Tween-80): 110 % of control | T/C (dose: 25.0 mg/kg/injection, schedule: Q01DX005 (ip), vehicle: saline with Tween-80): 103 % of control | T/C [4]: 119 % of control

CC(SCc1ccccc1)C(N)C(=O)O (stereo not drawn)
T/C [10]: 100 % of control | T/C [16]: 103 % of control | T/C [11]: 91 % of control
